Measurements as given in publication PMC5877387, “Nanoparticles engineered to bind cellular motors for efficient delivery” (Journal of Nanobiotechnology, 2018).

Assays:
[1] = Cytotoxicity of inhibitors, trypan blue exclusion; conditions: at working concentrations (Nocodazole 2.5 µM, Latrunculin A 0.1 µM)
Vero cells = assay: Inhibition assays of NP transport with cytoskeleton-depolymerizing drugs; format: cell-based; conditions: Nocodazole 2.5 µM, Latrunculin A 0.1 µM; 1.5 µM NPs, 37 °C

Structure (SMILES)	cytotoxicity (cell death) after drug incubation [1] [%]	effect of drug on Au@DBP distribution, movement and spread (Vero cells)
COC(=O)Nc1nc2ccc(C(=O)c3cccs3)cc2[nH]1 [Nocodazole]	≤ 10	reversibly stopped
C/C1=C/C(=O)O[C@@H]2C[C@@H](CC[C@H](C)/C=C\C=C\CC1)O[C@@](O)([C@@H]1CSC(=O)N1)C2 [Latrunculin A]	≤ 10	did not stop
